Reference: ChEMBL document CHEMBL5338821, “6-Substituted Triazolyl Benzoxaboroles as Selective Carbonic Anhydrase Inhibitors: In Silico Design, Synthesis, and X-ray Crystallography” (J Med Chem, 2023)

Experiments:
Homo sapiens [1] = species: Homo sapiens; test: Selectivity index, ratio of Ki for inhibition of recombinant human carbonic anhydrase I to Ki for inhibition of recombinant human carbonic anhydrase VII
Carbonic anhydrase 4 = Carbonic anhydrase 4 (Homo sapiens, UniProt P22748); test: Inhibition of recombinant human carbonic anhydrase IV assessed as inhibition constant incubated for 15 mins by phenol red dye based stopped-flow CO2 hydration assay
Carbonic anhydrase 1 = Carbonic anhydrase 1 (Homo sapiens, UniProt P00915); test: Inhibition of recombinant human carbonic anhydrase I assessed as inhibition constant incubated for 15 mins by phenol red dye based stopped-flow CO2 hydration assay
Homo sapiens [2] = species: Homo sapiens; test: Selectivity index, ratio of Ki for inhibition of recombinant human carbonic anhydrase II to Ki for inhibition of recombinant human carbonic anhydrase VII
Carbonic anhydrase 7 = Carbonic anhydrase 7 (Homo sapiens, UniProt P43166); test: Inhibition of recombinant human carbonic anhydrase VII assessed as inhibition constant incubated for 15 mins by phenol red dye based stopped-flow CO2 hydration assay
Carbonic anhydrase 2 = Carbonic anhydrase 2 (Homo sapiens, UniProt P00918); test: Inhibition of recombinant human carbonic anhydrase II assessed as inhibition constant incubated for 15 mins by phenol red dye based stopped-flow CO2 hydration assay
Carbonic anhydrase 9 = Carbonic anhydrase 9 (Homo sapiens, UniProt Q16790); test: Inhibition of recombinant human carbonic anhydrase IX assessed as inhibition constant incubated for 15 mins by phenol red dye based stopped-flow CO2 hydration assay
Homo sapiens [3] = species: Homo sapiens; test: Selectivity index, ratio of Ki for inhibition of recombinant human carbonic anhydrase II to Ki for inhibition of recombinant human carbonic anhydrase IX
Homo sapiens [4] = species: Homo sapiens; test: Selectivity index, ratio of Ki for inhibition of recombinant human carbonic anhydrase I to Ki for inhibition of recombinant human carbonic anhydrase IX

Carbonic anhydrase 4, sequence (P22748 whole entry): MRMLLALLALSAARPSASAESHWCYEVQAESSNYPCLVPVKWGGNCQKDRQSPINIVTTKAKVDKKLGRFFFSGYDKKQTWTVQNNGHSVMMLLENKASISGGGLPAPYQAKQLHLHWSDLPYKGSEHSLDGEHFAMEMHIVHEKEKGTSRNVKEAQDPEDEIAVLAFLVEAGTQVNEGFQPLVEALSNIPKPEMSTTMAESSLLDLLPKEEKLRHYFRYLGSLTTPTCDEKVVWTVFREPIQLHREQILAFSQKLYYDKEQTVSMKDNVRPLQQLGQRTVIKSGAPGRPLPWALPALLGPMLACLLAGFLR
Carbonic anhydrase 7, sequence (P43166 whole entry): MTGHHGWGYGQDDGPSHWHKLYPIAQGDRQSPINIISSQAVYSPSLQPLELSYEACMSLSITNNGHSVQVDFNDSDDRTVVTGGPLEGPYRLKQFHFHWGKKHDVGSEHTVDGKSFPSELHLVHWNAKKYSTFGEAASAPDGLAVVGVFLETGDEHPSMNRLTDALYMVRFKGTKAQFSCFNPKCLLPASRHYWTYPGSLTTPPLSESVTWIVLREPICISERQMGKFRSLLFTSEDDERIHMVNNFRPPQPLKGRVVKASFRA
Carbonic anhydrase 1, sequence (P00915 whole entry): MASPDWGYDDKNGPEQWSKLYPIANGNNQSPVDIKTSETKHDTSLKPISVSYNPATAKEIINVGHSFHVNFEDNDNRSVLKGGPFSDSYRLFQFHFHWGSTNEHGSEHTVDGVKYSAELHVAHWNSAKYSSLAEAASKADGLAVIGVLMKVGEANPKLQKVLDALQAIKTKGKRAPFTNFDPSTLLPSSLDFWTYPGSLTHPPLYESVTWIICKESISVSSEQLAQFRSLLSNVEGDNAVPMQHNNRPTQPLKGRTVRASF

Ratio Ki (Homo sapiens [1])	Ki (Carbonic anhydrase 4) [µM]	Ki (Carbonic anhydrase 1) [µM]	Ratio Ki (Homo sapiens [2])	Ki (Carbonic anhydrase 7) [µM]	Ki (Carbonic anhydrase 2) [µM]	Ki (Carbonic anhydrase 9) [µM]	Ratio Ki (Homo sapiens [3])	Ratio Ki (Homo sapiens [4])	SMILES
6	1.61	0.3	6	0.0492	0.27	0.0332	–	–	OB1OCc2ccc(-n3cc(CSc4ccccc4)nn3)cc21
–	0.749	0.505	–	0.0675	0.31	0.114	–	–	O=C(O)c1cccc(-c2cn(-c3ccc4c(c3)B(O)OC4)nn2)c1
–	1.66	0.863	–	0.0881	0.258	0.052	–	–	COc1ccc(OCc2cn(-c3ccc4c(c3)B(O)OC4)nn2)cc1
–	3.18	2.6	–	0.0702	0.375	0.111	–	–	O=c1ccc2ccc(OCc3cn(-c4ccc5c(c4)B(O)OC5)nn3)cc2o1
–	1.18	0.74	–	0.262	0.362	0.122	–	–	OB1OCc2ccc(-n3cc(-c4ccccc4)nn3)cc21
–	0.497	1.46	–	0.0817	0.494	0.0704	–	–	OCCc1cn(-c2ccc3c(c2)B(O)OC3)nn1
–	0.928	1.09	–	0.141	0.873	0.145	–	–	OCc1cn(-c2ccc3c(c2)B(O)OC3)nn1
–	1.93	1.1	–	0.124	0.183	0.032	–	–	COc1cccc(OCc2cn(-c3ccc4c(c3)B(O)OC4)nn2)c1
–	3.22	2.32	–	0.474	1.08	0.389	–	–	OB1OCc2ccc(-n3cc(C4CC4)nn3)cc21
–	2.48	2.51	–	0.441	0.796	0.337	–	–	CCOC(=O)c1cn(-c2ccc3c(c2)B(O)OC3)nn1
6	1.05	0.336	6	0.0356	0.186	0.028	6	6	OB1OCc2ccc(-n3cc(COc4ccc(F)cc4)nn3)cc21
–	0.73	0.737	–	0.135	0.461	0.0752	–	–	CC(C)(C)OC(=O)NCc1cn(-c2ccc3c(c2)B(O)OC3)nn1
–	1.38	0.343	–	0.0562	0.205	0.0291	–	–	OB1OCc2ccc(-n3cc(COc4ccccc4)nn3)cc21

SMILES	Ratio Ki (Homo sapiens [1])	Ki (Carbonic anhydrase 4) [µM]	Ki (Carbonic anhydrase 1) [µM]	Ratio Ki (Homo sapiens [2])	Ki (Carbonic anhydrase 7) [µM]	Ki (Carbonic anhydrase 2) [µM]	Ki (Carbonic anhydrase 9) [µM]	Ratio Ki (Homo sapiens [3])	Ratio Ki (Homo sapiens [4])
[N-]=[N+]=Nc1ccc2c(c1)B(O)OC2	–	3.12	3.04	–	0.432	0.35	0.539	–	–
